Results reported in article PMC8910629, “Design, Synthesis, and Anticancer Activity of a Selenium-Containing Galectin-3 and Galectin-9N Inhibitor” (International Journal of Molecular Sciences, 2022).
Values joined by “and” are separate entries in the source; they are usually repeats but may differ in a detail not shown here. Equal entries are not always repeated.

What was measured:
HuVec cells = experiment: Angiogenesis (capillary tube formation) assay; type: cell-based, human; settings: SeDG at 2.5 mM
Experimental: Angiogenesis assay was performed by using “In Vitro Angiogenesis Assay Kit” (Merck, Burlington, MA, USA). Briefly, 100 μL of ECL were plated in a pre-cooled 96-well plate and incubated for 1 h at 37 °C. 10,000 cells (HuVec), suspended in EGM-2 [66], incubated with digalactosyl selenides, and seeded onto solidified matrix, according to manufacturer’s instructions. After 5–6 h of incubation at 37 °C, the tube formation was examined by means of a phase contrast optical microscope (Axiovert 200 Zeiss) at 10× magnification and the branch point number was calculated from 3 random fields per each treatment.

Gal-9N^CRD = molecular target: T1, Gal-9N^CRD (Homo sapiens, UniProt O00182); experiment: Isothermal titration calorimetry with Gal-9N CRD; type: binding; settings: ITC
T1 construct: Gal-9N^CRD (amino acid residues 1–148) were cloned into the vector pETM11; polyHis-tag (TEV-cleavable, from pETM11) (N); made in house; host or cells: Escherichia coli BL21(DE3)GOLD
T1 sequence (O00182 1-148): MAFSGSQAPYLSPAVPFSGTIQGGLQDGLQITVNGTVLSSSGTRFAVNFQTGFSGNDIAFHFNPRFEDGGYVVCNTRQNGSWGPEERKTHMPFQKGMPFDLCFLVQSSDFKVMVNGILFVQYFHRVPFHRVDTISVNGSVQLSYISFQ
Experimental: (§1) The two proteins were cloned into pETM11 expression vector with a N-terminal polyHis-tag that is removable by TEV protease. The recombinant vectors pETM11-gal3^CRD and pETM11-gal9^CRD were used to transform E. coli BL21(DE3)GOLD cells and a single colony was grown overnight at 37 °C in 20 mL of LB medium. In total, 10 mL of the saturated cultures were transferred in 1 L of LB medium and grown at 37 °C to 0.8 OD 600 nm before induction with IPTG (0.5 mM). The inductions were kept for 16 and for 3 h at 22 °C in the expression of Gal-3^CRD and Gal-9N^CRD, respectively. The cells were harvested by centrifugation, re-suspended in 30 mL of lysis buffer (20 mM NaP, 500 mM NaCl, 10 mM imidazole pH 7.0 for Gal-3^CRD and pH 7.5 Gal-9N^CRD), and sonicated. […] Elution was carried out with 300 mM imidazole. Fractions containing the recombinant protein were, finally, applied onto a Superdex 75 10/300 column (GE Healthcare), connected to an AKTA system (GE Healthcare) pre-equilibrated in 20 mM NaP, 150 mM NaCl pH 7.0 for the purification of Gal-3^CRD and pH 7.5 for Gal-9N^CRD.
(§2) The purified proteins were used to perform interaction studies. […] Before all titrations, molecules were dissolved in 20 mM NaP, 150 mM NaCl pH 7.0 (when the molecules were assayed against Gal-3^CRD) or pH 7.5 (for Gal-9N^CRD). The sample cell was filled with 280 μL of Gal-3^CRD or Gal-9N^CRD. Molecules were injected in a volume of 0.2 μL for the first injection and 1 μL for the next 39 injections using an injection interval of 150 s. The control experiment, obtained by injection of the same amount of each molecule in buffer solution, was subtracted to correct for heat production upon molecules dilution. All data were analyzed and fitted using the Microcal Origin version 7.0 software package. Binding enthalpy, dissociation constants, and stoichiometry were determined by fitting the data using a one-set-of-site-binding model.

tumor cell proliferation = test system: tumor cell proliferation; design: method as in doi:10.1039/D1QO00045D; settings: even at 2 mM concentration; cited from earlier work
Gal-3^CRD = molecular target: T2, Gal-3^CRD (Homo sapiens, UniProt P17931); experiment: Isothermal titration calorimetry with Gal-3 CRD; type: binding; settings: ITC, 298 K
T2 construct: The genes encoding Gal-3^CRD (amino acid residues 112–250); polyHis-tag (TEV-cleavable, from pETM11) (N); made in house; host or cells: Escherichia coli BL21(DE3)GOLD
Experimental: as §1, §2

WM266 cells [1] = experiment: Transwell invasion assay; type: cell-based, human; settings: 24 h, SeDG
Experimental: To analyze cell invasion, the surface of a filter membrane of a transwell insert was coated with extracellular matrix (ECL) (Millipore). Cells (5 × 10^4) suspended in 100 μL of serum-free medium were incubated with various concentrations of molecules and successively they were seeded onto the upper compartment of the transwell, whereas the lower chambers were filled with medium containing 10% FCS [65]. After 24 h, the cells were fixed with 10% formalin and stained with crystal violet. The remaining cells in the upper side of the transwell were removed and cells on the undersurface of the filters, the invaded cells, were visualized and counted from six randomly selected fields (10× magnification) under a phase-contrast microscope with AxioVision Rel.

WM266 cells [2] = experiment: Wound healing scratch assay; type: cell-based, human
Experimental: Analysis of cell migration in vitro has been carried out by using the wound healing scratch assay. WM266 cells were grown until they reached a confluent monolayer. After, they were linearly scratched with a pipette tip to generate a cell-free space. […] The area related to each incision was photographed at the time 0, 24, and 48 h using a phase contrast optical microscope with a 10× magnification (Zeiss). The distance between the edges of the incisions was measured by AxioVision Rel. 4.8 software and its mean value was determined as follows: wound closure (%) = 1 − (wound width tx/wound width t0) × 100. Bars depict mean ± SE of three independent experiments.

galectins = settings: cited from earlier work
Gal-3 = settings: cited from earlier work
Gal-1 = test system: Gal-1; design: method as in PMID 27356186; settings: cited from earlier work

digalactosyl selenide [SeDG]
change of capillary tube formation (HuVec cells): non-statistically significant change
n (stoichiometry) (Gal-9N^CRD; 298 K): 1.01 ± 0.05
ΔH (Gal-9N^CRD; 298 K): -5.64 ± 0.36 kcal/mol
−TΔS (Gal-9N^CRD; 298 K): -1.46 kcal/mol
Kd (Gal-9N^CRD; 298 K, pH 7.5): ~20 µM and 22.4 µM
effect on tumor cell proliferation (tumor cell proliferation): unable to affect tumor cell proliferation
n (stoichiometry) (Gal-3^CRD): 1.09 ± 0.05
ΔG (Gal-3^CRD): -6.31 kcal/mol
ΔH (Gal-3^CRD): -4.32 ± 0.27 kcal/mol
−TΔS (Gal-3^CRD): -1.99 kcal/mol
Kd (Gal-3^CRD; pH 7.0): 20.2 ± 2.2 µM
WM266 invasion through extracellular matrix (WM266 cells [1]): able to reduce the cells invasion but only at millimolar concentrations
wound closure (WM266 cells [2]; WM266, SeDG at 1 and 2.5 mM, 24 and 48 h, vs untreated): decreased the wound closure at all used concentrations and time intervals

OC[C@H]1O[C@@H](S[C@@H]2O[C@H](CO)[C@H](O)[C@H](O)[C@H]2O)[C@H](O)[C@@H](O)[C@H]1O [TDG, β-D-galactopyranosyl-(1-1)-thio-β-D-galactopyranoside]
affinity to galectins (galectins): same affinity to galectins as lactose

CC(=O)N[C@H]1C(O)O[C@H](CO)[C@@H](O[C@@H]2O[C@H](CO)[C@H](O)[C@H](O)[C@H]2O)[C@@H]1O (some centres unmarked) [LacNAc, N-acetyllactosamine]
binding affinities to galectins (galectins): high micromolar range

OC[C@H]1O[C@@H](O[C@H]2[C@H](O)[C@@H](O)C(O)O[C@@H]2CO)[C@H](O)[C@@H](O)[C@H]1O (mixture of isomers) [lactose]
binding affinities to galectins (galectins): high micromolar range
binding of lactose (functional integrity of protein) (Gal-9N^CRD; Figure S2): able to bind lactose

OC[C@H]1O[C@@H](S[C@@H]2O[C@H](CO)[C@H](O)[C@H](n3cc(-c4cccc(F)c4)nn3)[C@H]2O)[C@H](O)[C@@H](n2cc(-c3cccc(F)c3)nn2)[C@H]1O [TD139]
binding affinity (Gal-3): nanomolar affinity
binding affinity (Gal-1): nanomolar affinity

B1: Gal-3^CRD: recombinant carbohydrate recognition domain of galectin 3 (residues 112–250), used as cell motility stimulator (protein, UniProt P17931 112-250, looked up, fragment)
chain: GPLIVPYNLPLPGGVVPRMLITILGTVKPNANRIALDFQRGNDVAFHFNPRFNENNRRVIVCNTKLDNNWGREERQSVFPFESGKPFKIQVLVEPDHFKVAVNDAHLLQYNHRVKKLNEISKLGISGDIDLTSASYTMI
modifications: carbohydrate recognition domain
notes: recombinant carbohydrate recognition domain of galectin 3 (residues 112–250), used as cell motility stimulator
cell migration (wound closure) vs control (WM266 cells [2]; WM266, 50 µM Gal-3^CRD): migrate more than in the control
